# Marks after values point to notes of the source that are not given here.
# Assays:
# [1] = Dynamic light scattering (DLS) of MGs; type: physicochemical; conditions: At 3.2 mg/mL THF; for Diameter (nm): injected in nanopure water
# Experimental: The self-assembly of the glycoliposomes into vesicles and liposomes involved the injection method of their solution in a water miscible solvent such as ethanol or tetrahydrofuran (THF) into water or buffer. […] The resulting assemblies were first analyzed by dynamic light scattering (DLS) for size, polydispersity (PDI), and stability in time. For liposome size determination, solutions of the glycolipids (3.5 mg) in THF (1.1 mL) were then diluted in distilled water (2.2 mL) to provide final concentrations of 1.06 mg/mL. Particle size distributions were measured in water using a Zetasizer® Nano S90 from Malvern Instruments (UK) equipped with 4 mW He—Ne laser 633 nm and avalanche photodiode positioned at 90° to the beam and temperature-controlled cuvette holder. Instrument parameters were determined automatically along with measurement times. Experiments were performed in triplicate at 25° C.
# Different solutions of 12a (C8), 12c (C12), 12d (C14), 12e (C16), 22c (C12), 22d (C14), 22e (C16) in THF and EtOH were prepared from 0.5 mg/mL to 10 mg/mL. 100 μL of these preparations were injected in a constant 2 mL of nanopure water followed by 5 seconds of vortexing, and analyzed by DLS, to determine the diameter size of the MGs, as shown in Table 2.
# [2] = In vivo Dynantin distribution after intranasal treatment; conditions: intranasal Dynantin 2 μg, 20 minutes
# [3] = tested on: HeLa cells; test: Nile Red cellular uptake, HeLa; type: cell-based, human
# Experimental: Murine dendritic cells JAWSII (ATCC® CRL-11904™) were grown in RPMI-1640 medium (HyClone, Logan UT) supplemented with 8% FBS (Gibco, Grand Island NY), 100 units/ml penicillin/streptomycin (HyClone, Logan UT) and 5 ng/mL of GM-CSF (Invitrogen, Frederick MD) at 37° C. and 5% CO2. Once confluent, cells were collected using 0.25% Trypsin-EDTA (Gibco, Grand Island NY). Murine macrophage cells J774A.1 (ATCC® TIB-67™) and human malignant cells HeLa (ATCC® CCL-2™; Cederlane, Burlington, ON, Canada) were grown […] (DMEM) high glucose (HyClone, Logan, UT) supplemented with 10% FBS and 100 units/ml penicillin/streptomycin at 37° C. and 5% CO2. Once confluent, cells were collected using a cell scraper. Viability was assessed prior to experiments by Trypan Blue (Gibco, Grand Island NY) exclusion where the viability was >90%. Cells were seeded at 3×10^5 cells in 300 μL in a 96 multi-well plate and left untreated or were treated with 10 μg/mL of empty liposomes MG12d or MGC12, 1 μg/mL of Nile Red (Sigma, St-Louis MO), or 1 μg/mL of Nile Red encapsulated in 10 μg/mL of MG12d or MGC12. […] Mean fluorescence intensity was analysed using the Cytomics FC-500 flow cytometer (Beckman Coulter, Fullerton CA) using the FL3 channel where […] were measured. Data was analyzed using the CXP Analysis Software. […]
Compound,Polydispersity Index (PDI) [1],Diameter (nm) [1],also measured
6-bis(tetradecyloxy)benzamido-N-hexyl α-D-mannopyranoside [12d],0.040,286 ^a nm,
"CCCCCCCCOc1ccc(C(=O)NCCCCCCO[C@H]2O[C@H](CO)[C@@H](O)[C@H](O)[C@@H]2O)cc1OCCCCCCCC [12a, 6-Bis(octacyloxy)benzamido-N-hexyl α-D-mannopyranoside]",0.178,300^a nm,
"CCCCCCCCCCCCOc1ccc(C(=O)NCCCCCCO[C@H]2O[C@H](CO)[C@@H](O)[C@H](O)[C@@H]2O)cc1OCCCCCCCCCCCC [12c, 6-Bis(dodecyloxy)benzamido-N-hexyl α-D-mannopyranoside]",0.202,267 ^a nm,
CC[C@H](C)[C@H](NC(=O)[C@H](CCCN=C(N)N)NC(=O)[C@H](CCCN=C(N)N)NC(=O)[C@H](CC(C)C)NC(=O)[C@H](Cc1ccccc1)NC(=O)CNC(=O)CNC(=O)[C@@H](C)Cc1c(C)cc(O)cc1C)C(=O)N[C@@H](CCCN=C(N)N)C(=O)N1CCC[C@H]1C(=O)N[C@@H](CCCCN)C(N)=O [Dynantin],,,"Brain (%), percentage of total dose recovered ([2]; brain): 8.15 ± 3.06%; Dynantin levels in the brain ([2]; brain): detectable levels; Lung (%), percentage of total dose recovered ([2]; lung): 4.93 ± 0.89%; Sera (%), percentage of total dose recovered ([2]; sera): 21.66 ± 3.99%"
CCN(CC)c1ccc2nc3c4ccccc4c(=O)cc-3oc2c1 [Nile Red],,,Nile Red uptake / staining [3]: no staining
